Data published in US6514734B1, “Polybifunctional reagent having a polymeric backbone and latent reactive moieties and bioactive groups” (Surmodics, Inc., priority 1997, dated 2003).
Where no end group is shown, it is not given here. {C12NH2} = aliphatic C12 spacer ending in a primary amine, used to couple the probe to the polymer

Experiments:
[1] = system: Complementary detection probe; assay: Hybridization of biotinylated detection probe to coated polypropylene microwells (SA-HRP, A655); type: binding; conditions: 50 fmole probe per well, n=3
Description: (§1) The DNA-polymer was applied to microplate wells (polypropylene plates from Corning Costar Corporation, Cambridge, Mass.) at 10 pmole (in 0.1 ml solution) per well and incubated for 10-30 minutes. The plates containing DNA polymer solutions were illuminated for 1.5 minutes with a Dymax lamp as described herein except that a filter was used that removes light of wavelengths shorter than 300 nm. A control consisted of oligoDNA capture probe (10 pmole in 0.1 ml 50 mM phosphate buffer, pH 8.5, 1 mM EDTA) that was added to wells, allowed to adsorb for 2.5 hr., and not illuminated. The plates were washed with phosphate buffered saline containing 0.05% Tween 20 in PBS to remove unbound DNA-polymer or control oligoDNA capture probe. […]
(§2) The binding of each detection probe was assayed by subsequently adding a conjugate of streptavidin and horseradish peroxidase (SA-HRP, available from Pierce, Rockford, Ill.) and measuring the activity of the bound HRP. […] The plates were then washed with 0.05% Tween 20 in PBS, followed by addition of peroxidase substrate (TMB Microwell Peroxidase substrate system from Kirkegarrd and Perry Laboratories, Gaithersburg, Md.) and measurement of absorbance at 655 nm on a microplate reader (model 3550, Bio-Rad Labs, Cambridge, Mass.). Since the polypropylene plates were opaque, the reacted substrate solutions were transferred to polystyrene plates to read the absorbance.

[2] = system: Noncomplementary detection probe; assay: as above; type: binding; conditions: 50 fmole probe per well, n=3
Description: as §1, §2

[3] = system: Escherichia coli (ATCC No. 25922); type: cell-based; conditions: in solution
Description: (§3) Magainin is a cationic peptide antibiotic that was originally isolated from the skin of Xenopus laevis. It is active against a broad spectrum of pathogens and acts at the surface of the pathogens. The activity of the magainin polymer was evaluated by a standard solution assay, which determined the minimum inhibitory concentration (MIC) of magainin polymer that was required to prevent the growth of bacteria.

[4] = system: Staphylococcus epidermidis (ATCC No. 12228); type: cell-based; conditions: in solution
Description: as §3

Question: “5′-GTCTGAGTCGGAGCCAGGGCGGCCGCCAACAGCAGGAGCA (DNA GTCTGAGTCGGAGCCAGGGCGGCCGCCAACAGCAGGAGCA; DNA, 5' {C12NH2}, backbone not given here; coupled via 5' amine to photoreactive NOS polymer) [oligo DNA capture probe]” was tested. Which “Hybridization Signals (A655), Complementary detection probe” value [1] did it give?
Answer: The value was 0.037 ± 0.005.

Question: And the “Hybridization Signals (A655), Noncomplementary detection probe” value [2]?
Answer: The value was 0.033 ± 0.001.

Question: For “magainin polymer: photoreactive polyacrylamide containing magainin ligand (SEQ ID NO:14) (GIGKFLHSAKKFGKAFVGEIMNSC; not fully specified (residue 24); printed as Gly Ile Gly Lys Phe Leu His Ser Ala Lys Lys Phe Gly Lys Ala Phe Val Gly Glu Ile Met Asn Ser Cys; also: in photoreactive polyacrylamide)”, which MIC [3] is on record?
Answer: Its MIC is 50 mg/L.

Question: What about the MIC [4] of the same substance?
Answer: Its MIC is 50 mg/L.
